Results from ChEMBL document CHEMBL6074684, “Structure-activity relationship study of novel evodiamine amino acid conjugates with potent anti-colorectal cancer efficacy” (Eur J Med Chem, 2025).
Converted amounts (≈) assume the structure as drawn. The source made the active and inactive calls. The rule behind the calls is not given here.

Tests used:
[1] = Toxicity in male BALB/c nude mouse xenografted with human HT-29 cells assessed as body weight loss at 0.5 mg/kg, ip administered once daily for 14 days; type: organism-based; conditions: in vivo, 336 h, time 14 day
[2] = Toxicity in male BALB/c nude mouse xenografted with human LoVo cells assessed as body weight loss at 0.5 mg/kg, ip administered once daily for 14 days; type: organism-based; conditions: in vivo, 336 h, time 14 day
[3] = Toxicity in male BALB/c nude mouse xenografted with human HT-29 cells assessed as animal death at 0.5 mg/kg, ip administered once daily for 14 days; type: organism-based; conditions: in vivo, 336 h, time 14 day
HT-29 [4] = experiment: Antitumor activity against human HT-29 cells xenografted in male BALB/c nude mouse assessed as tumor growth inhibition at 0.5 mg/kg, ip administered once daily for 14 days relative to control; type: functional; conditions: HT-29, 336 h, time 14 day, read-out: TGI
[5] = Toxicity in male BALB/c nude mouse xenografted with human LoVo cells assessed as animal death at 0.5 mg/kg, ip administered once daily for 14 days; type: organism-based; conditions: in vivo, 336 h, time 14 day
LoVo [6] = experiment: Antitumor activity against human LoVo cells xenografted in male BALB/c nude mouse assessed as tumor growth inhibition at 0.5 mg/kg, ip administered once daily for 14 days; type: functional, organism-based; conditions: time 14.0 day
[7] = Aqueous solubility of compound by HPLC analysis; type: physicochemical
HCT-116 = experiment: Antiproliferative activity against human […] cells assessed as inhibition of cell growth incubated for 72 hrs by MTT assay; type: functional, cell-based; conditions: HCT-116, 72 h
RKO [8] = experiment: Antiproliferative activity against human RKO cells assessed as inhibition of cell growth incubated for 72 hrs by MTT assay; type: functional, cell-based
[9] = molecular target: T1, DNA topoisomerase 1 (Homo sapiens) (UniProt P11387); experiment: Inhibition of topoisomerase 1 (unknown origin) mediated DNA relaxation at 100 uM preincubated for 20 mins followed by pBR322 plasmid DNA addition and measured after 15 mins by red nucleic acid gel staining based agarose gel electrophoresis; conditions: time 35.0 min
T1 sequence (whole entry): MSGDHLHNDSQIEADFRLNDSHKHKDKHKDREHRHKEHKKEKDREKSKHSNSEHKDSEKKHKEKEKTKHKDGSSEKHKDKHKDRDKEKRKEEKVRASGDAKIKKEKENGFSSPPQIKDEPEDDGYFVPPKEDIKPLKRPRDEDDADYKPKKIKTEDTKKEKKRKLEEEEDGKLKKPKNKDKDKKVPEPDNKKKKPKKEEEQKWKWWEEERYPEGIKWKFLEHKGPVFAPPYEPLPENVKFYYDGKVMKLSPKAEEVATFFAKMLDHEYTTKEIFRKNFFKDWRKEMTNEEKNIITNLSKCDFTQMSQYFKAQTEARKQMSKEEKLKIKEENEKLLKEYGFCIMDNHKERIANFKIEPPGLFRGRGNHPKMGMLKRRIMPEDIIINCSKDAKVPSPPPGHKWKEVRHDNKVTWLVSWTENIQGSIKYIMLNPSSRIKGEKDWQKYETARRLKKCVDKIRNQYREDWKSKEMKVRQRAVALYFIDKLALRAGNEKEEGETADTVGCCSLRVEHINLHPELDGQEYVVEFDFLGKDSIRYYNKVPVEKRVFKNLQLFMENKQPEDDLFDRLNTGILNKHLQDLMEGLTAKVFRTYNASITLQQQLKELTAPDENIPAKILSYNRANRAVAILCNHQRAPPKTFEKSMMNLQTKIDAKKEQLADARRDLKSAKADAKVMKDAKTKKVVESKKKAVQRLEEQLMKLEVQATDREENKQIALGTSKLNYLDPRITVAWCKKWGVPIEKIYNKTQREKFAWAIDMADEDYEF

HT-29 [10] = experiment: Antiproliferative activity against human HT-29 cells assessed as inhibition of cell growth incubated for 72 hrs by MTT assay; type: functional, cell-based; conditions: HT-29, 72 h
LoVo [11] = experiment: Antiproliferative activity against human LoVo cells assessed as inhibition of cell growth incubated for 72 hrs by MTT assay; type: functional, cell-based
Huh-7 = experiment: Antiproliferative activity against human Huh-7 cells assessed as inhibition of cell growth incubated for 72 hrs by MTT assay; type: functional, cell-based; conditions: Huh-7, 72 h
HGC-27 = experiment: Antiproliferative activity against human HGC-27 cells assessed as inhibition of cell growth incubated for 72 hrs by MTT assay; type: functional, cell-based; conditions: HGC-27, 72 h
SGC-7901 = experiment: Antiproliferative activity against human SGC-7901 cells assessed as inhibition of cell growth incubated for 72 hrs by MTT assay; type: functional, cell-based; conditions: SGC-7901, 72 h
MCF7 = experiment: Antiproliferative activity against human MCF7 cells assessed as inhibition of cell growth incubated for 72 hrs by MTT assay; type: functional, cell-based; conditions: MCF7, 72 h
SK-HEP1 = experiment: Antiproliferative activity against human SK-HEP1 cells assessed as inhibition of cell growth incubated for 72 hrs by MTT assay; type: functional, cell-based; conditions: SK-HEP1, 72 h
MGC-803 = experiment: Antiproliferative activity against human MGC-803 cells assessed as inhibition of cell growth incubated for 72 hrs by MTT assay; type: functional, cell-based; conditions: MGC-803, 72 h
LoVo [12] = experiment: Induction of morphological changes in human LoVo cells assessed as appearance of contracted nucleus at 90 nM incubated for 24 hrs by Giemsa staining based microscopic analysis; type: functional, cell-based
RKO [13] = experiment: Induction of apoptosis in human RKO cells assessed as apoptosis rate at 90 nM incubated for 24 hrs by Annexin V/PI staining based flow cytometric analysis (reference value: 4.87 %); type: functional
LoVo [14] = experiment: Antitumor activity against human LoVo cells xenografted in male BALB/c nude mouse assessed as tumor growth inhibition at 40 mg/kg, ip administered once daily for 14 days relative to control; type: functional; conditions: 336 h, time 14 day, read-out: TGI
[15] = Cmax in male Sprague-Dawley rat at 50 mg/kg, ip measured after 24 hrs by LC-MS/MS analysis; type: ADME, organism-based; conditions: in vivo
RKO [16] = experiment: Cell cycle arrest in human RKO cells assessed as accumulation of cells at G1 phase at 90 nM incubated for 24 hrs by […]PI staining based flow cytometric analysis (reference value: 35.29 %); type: functional
LoVo [17] = experiment: Antiproliferative activity against human LoVo cells assessed as reduction in cell viability measured after 24 hrs; type: functional, cell-based; conditions: dose 40-200 nmol/L
RKO [18] = experiment: Antiproliferative activity against human RKO cells assessed as reduction in cell viability measured after 24 hrs; type: functional, cell-based; conditions: dose 40-200 nmol/L
RKO [19] = experiment: Induction of morphological changes in human RKO cells assessed as appearance of condensed morphology at 90 nM incubated for 24 hrs by Giemsa staining based microscopic analysis; type: functional, cell-based
LoVo [20] = experiment: Cell cycle arrest in human LoVo cells assessed as accumulation of cells at G1 phase cells at 90 nM incubated for 24 hrs by […]PI staining based flow cytometric analysis (reference value: 29.69 %); type: functional
RKO [21] = experiment: Induction of morphological changes in human RKO cells assessed as appearance of contracted nucleus at 90 nM incubated for 24 hrs by Giemsa staining based microscopic analysis; type: functional, cell-based
[22] = Toxicity in male BALB/c nude mouse xenografted with human LoVo cells assessed as body weight loss at 40 mg/kg, ip administered once daily for 14 days; type: organism-based; conditions: in vivo, 336 h, time 14 day
LoVo [23] = experiment: Induction of apoptosis in human LoVo cells assessed as apoptosis rate at 90 nM incubated for 24 hrs by Annexin V/PI staining based flow cytometric analysis (reference value: 4.71 %); type: functional
[24] = Apparent clearance during terminal phase in male Sprague-Dawley rat at 50 mg/kg, ip measured after 24 hrs by LC-MS/MS analysis; type: ADME, organism-based; conditions: in vivo, read-out: CLz/F (converted)
LoVo [25] = experiment: Induction of morphological changes in human LoVo cells assessed as appearance of condensed morphology at 90 nM incubated for 24 hrs by Giemsa staining based microscopic analysis; type: functional, cell-based
[26] = Half-life in male Sprague-Dawley rat at 50 mg/kg, ip measured after 24 hrs by LC-MS/MS analysis; type: ADME, organism-based; conditions: in vivo
[27] = AUC (0 to t) in male Sprague-Dawley rat at 50 mg/kg, ip measured after 24 hrs by LC-MS/MS analysis; type: ADME, organism-based; conditions: in vivo
Mitochondrial membrane [28] = experiment: Induction of mitochondrial membrane potential loss in human LoVo cells assessed as decrease in TMRE positive cells at 90 nM incubated for 24 hrs by TMRE staining based flow cytometric analysis; type: cell membranes
RKO [29] = experiment: Cell cycle arrest in human RKO cells assessed as accumulation of cells at S phase at 90 nM incubated for 24 hrs by […]PI staining based flow cytometric analysis (reference value: 43.36 %); type: functional
Mitochondrial membrane [30] = experiment: Induction of mitochondrial membrane potential loss in human RKO cells assessed as decrease in TMRE positive cells at 90 nM incubated for 24 hrs by TMRE staining based flow cytometric analysis; type: cell membranes
RKO [31] = experiment: Cell cycle arrest in human RKO cells assessed as accumulation of cells at G2 phase at 90 nM incubated for 24 hrs by […]PI staining based flow cytometric analysis (reference value: 20.07 %); type: functional
[32] = Tmax in male Sprague-Dawley rat at 50 mg/kg, ip measured after 24 hrs by LC-MS/MS analysis; type: ADME, organism-based; conditions: in vivo
LoVo [33] = experiment: Cell cycle arrest in human LoVo cells assessed as accumulation of cells at G2 phase cells at 90 nM incubated for 24 hrs by […]PI staining based flow cytometric analysis (reference value: 14.84 %); type: functional
LoVo [34] = experiment: Cell cycle arrest in human LoVo cells assessed as accumulation of cells at S phase cells at 90 nM incubated for 24 hrs by […]PI staining based flow cytometric analysis (reference value: 54.99 %); type: functional

In the case of `CC[C@@]1(O)C(=O)OCc2c1cc1n(c2=O)Cc2cc3c(CN(C)C)c(O)ccc3nc2-1` [TOPOTECAN], the Activity [1] is reported as “Toxic”, the Activity [2] is reported as “Toxic” and the Activity [3] is reported as “Toxic”. The inhibition in vivo at 0.5 mg/kg (HT-29 [4]) was 70.7%, the Activity [5] was “Toxic” and the Activity (LoVo [6]) was “Active”.
With `O=C1c2cc(F)ccc2N(c2cccc(F)c2)C2c3[nH]c4ccc(O)cc4c3CCN12` (racemic) the solubility [7] was 7.58 µg/mL (≈ 18.2 µM), the IC50 (HCT-116) was 0.2 µM and the IC50 (RKO [8]) was 0.17 µM. The inhibition [9] was “Active; Little Effect Observed”, the IC50 (HT-29 [10]) was 0.16 µM and the IC50 (LoVo [11]) was 0.35 µM.
For `CC(C)(C)OC(=O)N[C@@H](CCC(N)=O)C(=O)Oc1ccc2[nH]c3c(c2c1)CCN1C(=O)c2cc(F)ccc2N(c2cccc(F)c2)[C@@H]31`, the IC50 (Huh-7) was 11.5 µM, the IC50 (HGC-27) was 18.8 µM and the IC50 (HCT-116) was 19.2 µM. For the same compound, the IC50 (SGC-7901) was 59.6 µM, the IC50 (MCF7) was 24.6 µM and the IC50 (RKO [8]) was 9.3 µM. The inhibition [9] was “Active; Better Activity Than Evodiamine”, the IC50 (HT-29 [10]) was 26.8 µM and the IC50 (SK-HEP1) was 37 µM. For the same compound, the IC50 (LoVo [11]) was 12.7 µM and the IC50 (MGC-803) was 15.1 µM.
For `O=C1c2cc(F)ccc2N(c2cccc(F)c2)[C@@H]2c3[nH]c4ccc(O)cc4c3CCN12`, the Activity (LoVo [12]) was “Active”, the Activity (RKO [13]) was 13.9% and the inhibition in vivo at 40 mg/kg (LoVo [14]) was 51.2%. It also gave a Cmax [15] of 2190 ng/mL, a solubility [7] of 3.24 µg/mL (≈ 7.76 µM) and an Activity (RKO [16]) of 35.52%. The Activity (LoVo [17]) was “Dose-dependent-effect”, the Activity (RKO [18]) was “Dose-dependent-effect” and the Activity (RKO [19]) was “Active”. For the same compound, the Activity (LoVo [20]) was 18.84%, the Activity (RKO [21]) was “Active” and the Activity [22] was “Toxic”. It also gave an IC50 (HCT-116) of 0.27 µM, an Activity (LoVo [23]) of 25.44% and a CL/F [24] of 77.8 mL/min/kg. For the same compound, the IC50 (RKO [8]) was 0.13 µM, the Activity (LoVo [25]) was “Active” and the IC50 (HT-29 [10]) was 0.21 µM. The half-life [26] was 4.18 h, the AUC(0-t) at 24 h [27] was 4350 ng·h/mL and the Activity (Mitochondrial membrane [28]) was “Active”. The Activity (RKO [29]) was 21.88%, the IC50 (LoVo [11]) was 0.17 µM and the Activity (Mitochondrial membrane [30]) was “Active”. For the same compound, the Activity (RKO [31]) was 42.34%, the Tmax [32] was 0.5 h and the Activity (LoVo [33]) was 31.88%. For the same compound, the Activity (LoVo [34]) was 48.04%.
